Assay results as given in the supplement of paper PMC10307832.

Key:
Assay in all cases: relative viability (nuclei count vs DMSO), 5 days (fraction); higher = more cells survive
[1] = test system: HOP-62
How it was run: (§1)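 Lung cancer cell lines were pin-tool dosed in 1536-well plates on the day after seeding, with either a lone drug or a fixed anchor-drug dose plus five library-drug doses (not always all listed) in √10 steps. Nuclei were counted on 4× images after 5 days. Relative viability is the ratio of treated-well to vehicle-well nuclei counts, with each value a median of duplicate plates.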

[2] = test system: NCI-H460
How it was run: as §1

[3] = test system: SK-LU-1
How it was run: as §1

[4] = test system: HCC-366
How it was run: as §1

[5] = test system: NCI-H1792
How it was run: as §1

[6] = test system: EMC-BAC-2
How it was run: as §1

[7] = test system: HCC-827
How it was run: as §1

[8] = test system: SW 1573
How it was run: as §1

[9] = test system: NCI-H2009
How it was run: as §1

[10] = test system: NCI-H1755
How it was run: as §1

[11] = test system: NCI-H727
How it was run: as §1

[12] = test system: NCI-H1395
How it was run: as §1

[13] = test system: NCI-H2228
How it was run: as §1

[14] = test system: NCI-H1437
How it was run: as §1

[15] = test system: HARA
How it was run: as §1

[16] = test system: COR-L 105
How it was run: as §1

[17] = test system: A-427
How it was run: as §1

[18] = test system: NCI-H23
How it was run: as §1

[19] = test system: CAL-12T
How it was run: as §1

[20] = test system: NCI-H1915
How it was run: as §1

For `O=c1cc(N2CCOCC2)oc2c(-c3cccc4c3sc3ccccc34)cccc12` + CC1(C)CCC(c2ccc(Cl)cc2)=C(CN2CCN(c3ccc(C(=O)NS(=O)(=O)c4ccc(N[C@H](CCN5CCOCC5)CSc5ccccc5)c(S(=O)(=O)C(F)(F)F)c4)cc3)CC2)C1 [Navitoclax] (partner 0.5 µM), the relative viability ([1]; first compound 0.01 µM) was 0.935, the relative viability ([1]; first compound 0.03162 µM) was 1.08 and the relative viability ([1]; first compound 0.1 µM) was 1.02. For the same compound, the relative viability ([1]; first compound 0.3162 µM) was 0.854, the relative viability ([1]; first compound 1 µM) was 1.07 and the relative viability ([2]; first compound 0.01 µM) was 1.06. The relative viability ([2]; first compound 0.03162 µM) was 1.07, the relative viability ([2]; first compound 0.1 µM) was 1.28 and the relative viability ([2]; first compound 0.3162 µM) was 1.04. For the same compound, the relative viability ([2]; first compound 1 µM) was 1.12, the relative viability ([3]; first compound 0.03162 µM) was 0.954 and the relative viability ([3]; first compound 0.1 µM) was 1.1. It also gave a relative viability ([3]; first compound 0.3162 µM) of 1.18, a relative viability ([3]; first compound 1 µM) of 0.77 and a relative viability ([4]; first compound 0.01 µM) of 1.11. For the same compound, the relative viability ([4]; first compound 0.03162 µM) was 1.1, the relative viability ([4]; first compound 0.1 µM) was 1.08 and the relative viability ([4]; first compound 0.3162 µM) was 1. It also gave a relative viability ([4]; first compound 1 µM) of 1.04, a relative viability ([5]; first compound 0.01 µM) of 0.604 and a relative viability ([5]; first compound 0.03162 µM) of 0.595. The relative viability ([5]; first compound 0.1 µM) was 0.368, the relative viability ([5]; first compound 0.3162 µM) was 0.564 and the relative viability ([5]; first compound 1 µM) was 0.556. It also gave a relative viability ([6]; first compound 0.01 µM) of 1.09, a relative viability ([6]; first compound 0.03162 µM) of 1.13 and a relative viability ([6]; first compound 0.1 µM) of 1.18. The relative viability ([6]; first compound 0.3162 µM) was 1.16, the relative viability ([6]; first compound 1 µM) was 1.17 and the relative viability ([7]; first compound 0.01 µM) was 1.02. It also gave a relative viability ([7]; first compound 0.03162 µM) of 0.996, a relative viability ([7]; first compound 0.1 µM) of 1.01 and a relative viability ([7]; first compound 0.3162 µM) of 1.07. It also gave a relative viability ([7]; first compound 1 µM) of 1.02, a relative viability ([8]; first compound 0.01 µM) of 1.04 and a relative viability ([8]; first compound 0.03162 µM) of 1. For the same compound, the relative viability ([8]; first compound 0.1 µM) was 1.15, the relative viability ([8]; first compound 0.3162 µM) was 1.06 and the relative viability ([8]; first compound 1 µM) was 0.832. The relative viability ([9]; first compound 0.01 µM) was 1.14, the relative viability ([9]; first compound 0.03162 µM) was 1.16 and the relative viability ([9]; first compound 0.1 µM) was 1.14. The relative viability ([9]; first compound 0.3162 µM) was 1.19, the relative viability ([9]; first compound 1 µM) was 1.05 and the relative viability ([10]; first compound 0.01 µM) was 0.983. The relative viability ([10]; first compound 0.03162 µM) was 0.949, the relative viability ([10]; first compound 0.1 µM) was 1.02 and the relative viability ([10]; first compound 0.3162 µM) was 0.972. For the same compound, the relative viability ([10]; first compound 1 µM) was 0.999, the relative viability ([11]; first compound 0.01 µM) was 0.47 and the relative viability ([11]; first compound 0.03162 µM) was 0.512. For the same compound, the relative viability ([11]; first compound 0.1 µM) was 0.39, the relative viability ([11]; first compound 0.3162 µM) was 0.398 and the relative viability ([11]; first compound 1 µM) was 0.438. The relative viability ([12]; first compound 0.01 µM) was 1.08, the relative viability ([12]; first compound 0.03162 µM) was 1.16 and the relative viability ([12]; first compound 0.1 µM) was 1.38. The relative viability ([12]; first compound 0.3162 µM) was 1.17, the relative viability ([12]; first compound 1 µM) was 1.23 and the relative viability ([13]; first compound 0.03162 µM) was 0.895. It also gave a relative viability ([13]; first compound 0.1 µM) of 1.16, a relative viability ([13]; first compound 0.3162 µM) of 0.897 and a relative viability ([13]; first compound 1 µM) of 1.19. For the same compound, the relative viability ([14]; first compound 0.01 µM) was 1.05, the relative viability ([14]; first compound 0.03162 µM) was 1.13 and the relative viability ([14]; first compound 0.1 µM) was 1.16. The relative viability ([14]; first compound 0.3162 µM) was 1.05, the relative viability ([14]; first compound 1 µM) was 1.05 and the relative viability ([15]; first compound 0.01 µM) was 1.11. The relative viability ([15]; first compound 0.03162 µM) was 1.13, the relative viability ([15]; first compound 0.1 µM) was 1.15 and the relative viability ([15]; first compound 0.3162 µM) was 1.17. It also gave a relative viability ([15]; first compound 1 µM) of 1.14, a relative viability ([16]; first compound 0.01 µM) of 0.91 and a relative viability ([16]; first compound 0.03162 µM) of 0.817. It also gave a relative viability ([16]; first compound 0.1 µM) of 0.79, a relative viability ([16]; first compound 0.3162 µM) of 0.73 and a relative viability ([16]; first compound 1 µM) of 0.676. It also gave a relative viability ([17]; first compound 0.01 µM) of 0.937, a relative viability ([17]; first compound 0.03162 µM) of 0.935 and a relative viability ([17]; first compound 0.1 µM) of 0.956. For the same compound, the relative viability ([17]; first compound 0.3162 µM) was 0.866, the relative viability ([17]; first compound 1 µM) was 0.959 and the relative viability ([18]; first compound 0.01 µM) was 0.981. The relative viability ([18]; first compound 0.03162 µM) was 0.846, the relative viability ([18]; first compound 0.3162 µM) was 0.832 and the relative viability ([18]; first compound 1 µM) was 0.777. It also gave a relative viability ([19]; first compound 0.01 µM) of 1.47, a relative viability ([19]; first compound 0.03162 µM) of 1.17 and a relative viability ([19]; first compound 0.1 µM) of 1.36. It also gave a relative viability ([19]; first compound 0.3162 µM) of 1.45, a relative viability ([19]; first compound 1 µM) of 1.16 and a relative viability ([20]; first compound 0.01 µM) of 0.792. For the same compound, the relative viability ([20]; first compound 0.03162 µM) was 0.788, the relative viability ([20]; first compound 0.1 µM) was 0.809 and the relative viability ([20]; first compound 0.3162 µM) was 0.779. For the same compound, the relative viability ([20]; first compound 1 µM) was 0.824.
